From patent US11058119B2, “Biologicals and their use in plants” (priority 2015, dated 2021)

What was measured:
[1] = test system: Metarhizium robertsii (15013-1); assay: Determination of fungicide sensitivity, conidia growth in liquid media; format: cell-based; conditions: 5,000 conidia in 0.5 ml YMA, 26° C., visual observation
Experimental: (§1) Conidia of Metarhizium robertsii (15013-1) and Metarhizium robertsii (23013-3) were produced by growing the fungus on potato dextrose agar plates for 1-2 weeks at 23° C. under continuous illumination from fluorescent lights. Conidia were harvested from the plate in water containing Tween-20 (0.01%) and counted using a hemacytometer. Fungicide sensitivity was determined by mixing 5,000 conidia in 0.5 ml of YMA (2 g yeast extract, 4 g malt extract per liter) liquid media containing varying concentrations of commercially available fungicides active against filamentous fungi in a 24 well plate. Plates were incubated for […] at 26° C. and then growth was assessed by visual observation with a stereomicroscope.

[2] = test system: Metarhizium robertsii (23013-3); assay: as above; format: cell-based; conditions: 5,000 conidia in 0.5 ml YMA, 26° C., visual observation
Experimental: as §1

CO/C=C(/C(=O)OC)c1ccccc1Oc1cc(Oc2ccccc2C#N)ncn1 [Azoxystrobin]
growth of 15013-1 conidia compared to a control without any fungicide ([1]; Fungicide Concentration 3 uM): ++ (growth of about 20% or about 80% inhibition compared to a control without any fungicide) | growth of 15013-1 conidia compared to a control without any fungicide ([1]; Fungicide Concentration 10 uM): + (growth of about 10% or about 90% inhibition compared to a control without any fungicide) | growth of 15013-1 conidia compared to a control without any fungicide ([1]; Fungicide Concentration 30 uM): − | growth of 23013-3 conidia compared to a control without any fungicide ([2]; Fungicide Concentration 3 uM): + (growth of about 10% or about 90% inhibition compared to a control without any fungicide) | growth of 23013-3 conidia compared to a control without any fungicide ([2]; Fungicide Concentration 10 uM): − | growth of 23013-3 conidia compared to a control without any fungicide ([2]; Fungicide Concentration 30 uM): −

N#Cc1c[nH]cc1-c1cccc2c1OC(F)(F)O2 [Fludioxonil]
growth of 15013-1 conidia compared to a control without any fungicide ([1]; Fungicide Concentration 3 uM): + (growth of about 10% or about 90% inhibition compared to a control without any fungicide) | growth of 15013-1 conidia compared to a control without any fungicide ([1]; Fungicide Concentration 10 uM): + (growth of about 10% or about 90% inhibition compared to a control without any fungicide) | growth of 15013-1 conidia compared to a control without any fungicide ([1]; Fungicide Concentration 30 uM): + (growth of about 10% or about 90% inhibition compared to a control without any fungicide) | growth of 23013-3 conidia compared to a control without any fungicide ([2]; Fungicide Concentration 3 uM): + (growth of about 10% or about 90% inhibition compared to a control without any fungicide) | growth of 23013-3 conidia compared to a control without any fungicide ([2]; Fungicide Concentration 10 uM): + (growth of about 10% or about 90% inhibition compared to a control without any fungicide) | growth of 23013-3 conidia compared to a control without any fungicide ([2]; Fungicide Concentration 30 uM): + (growth of about 10% or about 90% inhibition compared to a control without any fungicide)

c1ccc2[nH]c(-c3cscn3)nc2c1 [Thiabendazole]
growth of 15013-1 conidia compared to a control without any fungicide ([1]; Fungicide Concentration 3 uM): ++++ (growth of about 50% or more compared to a control without any fungicide) | growth of 15013-1 conidia compared to a control without any fungicide ([1]; Fungicide Concentration 10 uM): ++++ (growth of about 50% or more compared to a control without any fungicide) | growth of 15013-1 conidia compared to a control without any fungicide ([1]; Fungicide Concentration 30 uM): ++++ (growth of about 50% or more compared to a control without any fungicide) | growth of 23013-3 conidia compared to a control without any fungicide ([2]; Fungicide Concentration 3 uM): +++ (growth of about 30% or about 70% inhibition compared to a control without any fungicide) | growth of 23013-3 conidia compared to a control without any fungicide ([2]; Fungicide Concentration 10 uM): ++++ (growth of about 50% or more compared to a control without any fungicide) | growth of 23013-3 conidia compared to a control without any fungicide ([2]; Fungicide Concentration 30 uM): ++++ (growth of about 50% or more compared to a control without any fungicide)
